This is an account of results in patent US20210094954A1, “PREPARATION METHODS AND APPLICATIONS OF 3,5-DISUBSTITUTED METHYLPYRAZOLO[1,5-A]PYRIMIDINE-7-HYDROXYLIC SALTS” (priority 2019, published 2021).

What all share (assay type): cell-based
The test system of assay [1] is Streptococcus agalactia B group. In words: microbe, parasite or virus in culture. The following applies: 37° C., 24 hours; for MIC: Streptococcus, read-out: MIC values of in vitro antibacterial test results.
For assay [2], the system named is F2518(VRE), Staphylococcus aureus resistant strain 43300(MRSA), 703 (MRSA), pneumococcal resistance bacteria 6303(PRSP). In words: microbe, parasite or virus in culture. The following applies: read-out: MIC values (μM).
The subject of assay [3] is Bacillus anthracis Bacillus 1. As to the kind of experiment: microbe, parasite or virus in culture. The conditions noted are these: for MIC: Bacillus anthracis, 24 h, read-out: MIC values of in vitro antibacterial test results.
Assay [4] concerns Peel fungus. In words: organism not typed. The conditions noted are these: 37° C., 24 hours; for MIC: read-out: MIC values of in vitro antibacterial test results.
Assay [5] relates to Diphtheria bacilli. In words: organism not typed. The conditions noted are these: 37° C., 24 hours; for MIC: read-out: MIC values of in vitro antibacterial test results.
The test system of assay [6] is Clostridium perfringens. In words: microbe, parasite or virus in culture. The conditions noted are these: for MIC: Clostridium perfringens, 24 h, read-out: MIC values of in vitro antibacterial test results.
Assay [7] has as its system Streptococcus pneumoniae 6303 (PRSP). In words: microbe, parasite or virus in culture. The conditions noted are these: for MIC: Streptococcus pneumoniae, PRSP, 24 h, read-out: MIC values of in vitro antibacterial test results.
The subject of assay [8] is Bacillus subtilis 168. As to the kind of experiment: microbe, parasite or virus in culture. The conditions noted are these: 37° C., 24 hours; for MIC: Bacillus subtilis, 168, read-out: MIC values of in vitro antibacterial test results.
For assay [9], the system named is Streptococcus pneumoniae 10351. In words: microbe, parasite or virus in culture. The following applies: 37° C., 24 hours; for MIC: Streptococcus pneumoniae, 10351, read-out: MIC values of in vitro antibacterial test results.
Assay [10] has as its system Staphylococcus aureus 29231. As to the kind of experiment: microbe, parasite or virus in culture. The following applies: 37° C., 24 hours; for MIC: Staphylococcus aureus, 29231, read-out: MIC values of in vitro antibacterial test results.
Assay [11] deals with Streptococcus pneumoniae M2. In words: microbe, parasite or virus in culture. The conditions noted are these: 37° C., 24 hours; for MIC: Streptococcus pneumoniae, M2, read-out: MIC values of in vitro antibacterial test results.
For assay [12], the system named is Bacillus cereus 2. In words: microbe, parasite or virus in culture. The conditions noted are these: 37° C., 24 hours; for MIC: Bacillus cereus, 2, read-out: MIC values of in vitro antibacterial test results.
The test system of assay [13] is Staphylococcus aureus 703(MRSA). As to the kind of experiment: microbe, parasite or virus in culture. The conditions noted are these: for MIC: Staphylococcus aureus, MRSA, 24 h, read-out: MIC values of in vitro antibacterial test results.
Assay [14] has as its system Enterococcus faecalis F2518(VRE). In words: microbe, parasite or virus in culture. The following applies: for MIC: Enterococcus faecalis, VRE, 24 h, read-out: MIC values of in vitro antibacterial test results.
Assay [15] deals with Oral Candida. In words: microbe, parasite or virus in culture. The following applies: for MIC: Candida.
Assay [16] has as its system Staphylococcus aureus 43300(MRSA). As to the kind of experiment: microbe, parasite or virus in culture. The following applies: for MIC: Staphylococcus aureus, MRSA, 24 h, read-out: MIC values of in vitro antibacterial test results.
The subject of assay [17] is Enterococcus faecalis 29212. As to the kind of experiment: microbe, parasite or virus in culture. The conditions noted are these: 37° C., 24 hours; for MIC: Enterococcus faecalis, 29212, read-out: MIC values of in vitro antibacterial test results.
[18] abbreviates: 37° C., 24 hours, read-out: MIC values of in vitro antibacterial test results.

Structures are written as SMILES. Like-named read-outs stand apart in the source and are kept apart here.

In the case of `CC(=O)Oc1ccc(-c2cc([O-])n3nc(C)c(-c4ccc(F)cc4F)c3n2)cc1.[Na+]` [Compound 13, Sodium 5-(4-acetoxyphenyl)-3-(2,4-difluorophenyl)-2-methylpyrazolo[1,5-α]pyrimidin-7-olate], the MIC in [1] was > 150 µg/mL; in assay [2] it was < 100 µg/mL; in assay [3] it was > 150 µg/mL; in [4] it was < 150 µg/mL; in assay [5], > 150 µg/mL; in [6] it was > 150 µg/mL. Further, the MIC is > 150 µg/mL in assay [7]; > 150 µg/mL in assay [8]; > 150 µg/mL in assay [9]; > 150 µg/mL in assay [10]; < 100 µg/mL in assay [11]; < 150 µg/mL in assay [12]. For the same compound, the MIC in [13] was < 150 µg/mL; in assay [14] it was < 150 µg/mL; in [15] (read-out: MIC values (μM)), < 100 µg/mL; in [15] (setting [18]), < 100 µg/mL; in assay [16], < 100 µg/mL; in assay [17], < 150 µg/mL.
On to `CC(=O)Oc1ccc(-c2cc([O-])n3nc(C)c(-c4ccc(F)cc4F)c3n2)cn1.[Na+]` [Compound 33, Sodium 5-(6-acetoxypyridin-3-yl)-3-(2,4-difluorophenyl)-2-methylpyrazolo[1,5-α]pyrimidin-7-olate], for which the MIC in assay [1] is > 150 µg/mL; in [2], < 100 µg/mL; in assay [3], > 150 µg/mL; in [4], < 150 µg/mL; in [5] it was > 150 µg/mL; in assay [6], > 150 µg/mL. The MIC was > 150 µg/mL in assay [7]; > 150 µg/mL in assay [8]; > 150 µg/mL in [9]; > 150 µg/mL in [10]; < 100 µg/mL in assay [11]; < 100 µg/mL in assay [12]. In addition, the MIC in [13] is < 150 µg/mL; in [14] it was < 150 µg/mL; in assay [15] (read-out: MIC values (μM)) it was < 100 µg/mL; in assay [15] (setting [18]), < 150 µg/mL; in assay [16], < 100 µg/mL; in assay [17] it was < 100 µg/mL.
For `Cc1nn2c([O-])cc(-c3ccc([N+](=O)[O-])nc3)nc2c1-c1ccc(F)cc1F.[Na+]` [Compound 16, sodium 3-(2,4-difluorophenyl)-2-methyl-5-(6-nitropyridin-3-yl)pyrazolo[1,5-α]pyrimidin-7-olate], the MIC in assay [1] was > 150 µg/mL; in assay [2] it was < 100 µg/mL; in assay [3], > 150 µg/mL; in assay [4], > 150 µg/mL; in assay [5], > 150 µg/mL; in assay [6], > 150 µg/mL. The MIC is < 100 µg/mL in [7]; < 150 µg/mL in assay [8]; < 100 µg/mL in assay [9]; < 100 µg/mL in assay [10]; < 150 µg/mL in assay [11]; < 100 µg/mL in assay [12]. For the same compound, the MIC was < 100 µg/mL in assay [13]; < 150 µg/mL in assay [14]; < 100 µg/mL in [15] (read-out: MIC values (μM)); < 100 µg/mL in assay [15] (setting [18]); < 150 µg/mL in [16]; < 100 µg/mL in assay [17].
As for `Cc1nn2c([O-])cc(-c3ccc(S(=O)[O-])cc3)nc2c1-c1ccc(F)cc1F.[Na+].[Na+]` [Compound 8], the MIC was > 150 µg/mL in assay [1]; > 150 µg/mL in [3]; < 150 µg/mL in assay [4]; > 150 µg/mL in assay [5]; > 150 µg/mL in assay [6]; > 150 µg/mL in assay [7]. The MIC in assay [8] was > 150 µg/mL; in assay [9], > 150 µg/mL; in assay [10], > 150 µg/mL; in [11], < 150 µg/mL; in [12], < 150 µg/mL; in assay [13], < 150 µg/mL. Also, the MIC in assay [14], in assay [15] (setting [18]), in [16] and in assay [17] was < 150 µg/mL throughout.
Turning to `Cc1nn2c([O-])cc(-c3ccc([S](=O)(=O)[Na])nc3)nc2c1-c1ccc(F)cc1F.[Na+]` [Compound 28, Disodium 5-(3-(2,4-difluorophenyl)-2-methyl-7-hydroxypyrazolo[1,5-α]pyrimidin-5-yl)pyridine-2-sulfinate], the “MIC values of in vitro antibacterial test results” value (shortened to “MIC values”) in assay [1] is listed as “− (key: − represents the MIC value (μM) > 150 μg/mL; + represents the MIC value (μM) < 150 μg/mL; ++ represents the MIC value (μM) < 100 μg/mL; +++ represents the MIC value (μM) < 50 μg/mL)”; in assay [3] (37° C., 24 hours) it was “− (key: − represents the MIC value (μM) > 150 μg/mL; + represents the MIC value (μM) < 150 μg/mL; ++ represents the MIC value (μM) < 100 μg/mL; +++ represents the MIC value (μM) < 50 μg/mL)”; in assay [4], “+ (key: − represents the MIC value (μM) > 150 μg/mL; + represents the MIC value (μM) < 150 μg/mL; ++ represents the MIC value (μM) < 100 μg/mL; +++ represents the MIC value (μM) < 50 μg/mL)”; in assay [5] it was “− (key: − represents the MIC value (μM) > 150 μg/mL; + represents the MIC value (μM) < 150 μg/mL; ++ represents the MIC value (μM) < 100 μg/mL; +++ represents the MIC value (μM) < 50 μg/mL)”; in assay [6] (37° C., 24 hours), “− (key: − represents the MIC value (μM) > 150 μg/mL; + represents the MIC value (μM) < 150 μg/mL; ++ represents the MIC value (μM) < 100 μg/mL; +++ represents the MIC value (μM) < 50 μg/mL)”; in assay [7] (37° C., 24 hours), “− (key: − represents the MIC value (μM) > 150 μg/mL; + represents the MIC value (μM) < 150 μg/mL; ++ represents the MIC value (μM) < 100 μg/mL; +++ represents the MIC value (μM) < 50 μg/mL)”. Further, the “MIC values” value in [8] is on record as “− (key: − represents the MIC value (μM) > 150 μg/mL; + represents the MIC value (μM) < 150 μg/mL; ++ represents the MIC value (μM) < 100 μg/mL; +++ represents the MIC value (μM) < 50 μg/mL)”; in assay [9] it was “− (key: − represents the MIC value (μM) > 150 μg/mL; + represents the MIC value (μM) < 150 μg/mL; ++ represents the MIC value (μM) < 100 μg/mL; +++ represents the MIC value (μM) < 50 μg/mL)”; in assay [10] it was “− (key: − represents the MIC value (μM) > 150 μg/mL; + represents the MIC value (μM) < 150 μg/mL; ++ represents the MIC value (μM) < 100 μg/mL; +++ represents the MIC value (μM) < 50 μg/mL)”; in [11] it was “++ (key: − represents the MIC value (μM) > 150 μg/mL; + represents the MIC value (μM) < 150 μg/mL; ++ represents the MIC value (μM) < 100 μg/mL; +++ represents the MIC value (μM) < 50 μg/mL)”; in [12], “++ (key: − represents the MIC value (μM) > 150 μg/mL; + represents the MIC value (μM) < 150 μg/mL; ++ represents the MIC value (μM) < 100 μg/mL; +++ represents the MIC value (μM) < 50 μg/mL)”; in assay [13] (37° C., 24 hours), “+ (key: − represents the MIC value (μM) > 150 μg/mL; + represents the MIC value (μM) < 150 μg/mL; ++ represents the MIC value (μM) < 100 μg/mL; +++ represents the MIC value (μM) < 50 μg/mL)”. The “MIC values” value is given as “+ (key: − represents the MIC value (μM) > 150 μg/mL; + represents the MIC value (μM) < 150 μg/mL; ++ represents the MIC value (μM) < 100 μg/mL; +++ represents the MIC value (μM) < 50 μg/mL)” in assay [14] (37° C., 24 hours); “++ (key: − represents the MIC value (μM) > 150 μg/mL; + represents the MIC value (μM) < 150 μg/mL; ++ represents the MIC value (μM) < 100 μg/mL; +++ represents the MIC value (μM) < 50 μg/mL)” in [15] (37° C., 24 hours); “+ (key: − represents the MIC value (μM) > 150 μg/mL; + represents the MIC value (μM) < 150 μg/mL; ++ represents the MIC value (μM) < 100 μg/mL; +++ represents the MIC value (μM) < 50 μg/mL)” in assay [16] (37° C., 24 hours); “+ (key: − represents the MIC value (μM) > 150 μg/mL; + represents the MIC value (μM) < 150 μg/mL; ++ represents the MIC value (μM) < 100 μg/mL; +++ represents the MIC value (μM) < 50 μg/mL)” in assay [17].
